Experimental data: patent US20100004283A1, “4-[(3-FLUOROPHENOXY)PHENYLMETHYL]PIPERIDINE METHANESULFONATE: USES, PROCESS OF SYNTHESIS AND PHARMACEUTICAL COMPOSITIONS” (priority 2006, published 2010)

Key:
5-HTP-induced syndrome = settings: mice, orally administered, acute; cited from earlier work
[1] = system: immobility in the tail suspension test; settings: mice, orally administered, acute; cited from earlier work
[2] = Studies of stability under forced conditions; format: physicochemical
Experimental: Additionally, the compound of formula I has shown excellent stability properties. The compound of formula I has remained stable for at least 6 months in studies of stability under forced conditions at 50 and 60° C., as well as at 40° C. and 75% humidity. This represents more than 2 years of stability under normal conditions.

time remained stable ([2]; 40° C. and 75% humidity) | time remained stable ([2]; forced conditions at 50° C.) | time remained stable ([2]; forced conditions at 60° C.) | stability under normal conditions ([2]; represented by the forced-condition results) | SMILES | minimal effective dose (MED), potentiation of the 5-HTP-induced syndrome (5-HTP-induced syndrome) [mg/kg] | MED, reduction of the immobility in the tail suspension test [1] [mg/kg]
– | – | – | – | Fc1cccc(O[C@H](c2ccccc2)C2CCNCC2)c1 [(S)-4-[(3-fluorophenoxy)phenylmethyl]piperidine] | 10 | 10
at least 6 months | at least 6 months | at least 6 months | more than 2 years | CS(=O)(=O)O.Fc1cccc(OC(c2ccccc2)C2CCNCC2)c1 (stereo not drawn) [compound of formula I, 4-[(3-fluorophenoxy)phenylmethyl]piperidine methanesulfonic acid salt] | – | –
